Measured values published in PubChem BioAssay AID1963843 (Molecular Pharmacology Branch, DTP, NCI, 2024).

System: 616215-338-R-J1-PDC complex spheroid viability
Assay: Anticancer human tumor 616215-338-R-J1-PDC patient-derived colon adenocarcinoma cell line growth inhibition [POLQ]
Conditions: for IC50: curve of first compound; for viability, T/C: stronger effect = lower value
Summary of the method: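 Three-cell-type spheroids modelling solid tumor plus stroma served as the readout system; POL inhibitors were tested individually and in combination, concentration ranges set by clinical Cmax where known.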

[1] = second compound 0.0316 µM, first compound 0.0316 µM
[2] = second compound 0.0316 µM, first compound 0.1 µM
[3] = second compound 0.0316 µM, first compound 0.316 µM
[4] = second compound 0.0316 µM, first compound 1 µM
[5] = second compound 0.0316 µM, first compound 3.16 µM
[6] = second compound 0.0316 µM, first compound 10 µM
[7] = second compound 0.1 µM, first compound 0.0316 µM
[8] = second compound 0.1 µM, first compound 0.1 µM
[9] = second compound 0.1 µM, first compound 0.316 µM
[10] = second compound 0.1 µM, first compound 1 µM
[11] = second compound 0.1 µM, first compound 3.16 µM
[12] = second compound 0.1 µM, first compound 10 µM
[13] = second compound 0.316 µM, first compound 0.0316 µM
[14] = second compound 0.316 µM, first compound 0.1 µM
[15] = second compound 0.316 µM, first compound 0.316 µM
[16] = second compound 0.316 µM, first compound 1 µM
[17] = second compound 0.316 µM, first compound 3.16 µM
[18] = second compound 0.316 µM, first compound 10 µM
[19] = second compound 1 µM, first compound 0.0316 µM
[20] = second compound 1 µM, first compound 0.1 µM
[21] = second compound 1 µM, first compound 0.316 µM
[22] = second compound 1 µM, first compound 1 µM
[23] = second compound 1 µM, first compound 3.16 µM
[24] = second compound 1 µM, first compound 10 µM
[25] = second compound 3.16 µM, first compound 0.0316 µM
[26] = second compound 3.16 µM, first compound 0.1 µM
[27] = second compound 3.16 µM, first compound 0.316 µM
[28] = second compound 3.16 µM, first compound 1 µM
[29] = second compound 3.16 µM, first compound 3.16 µM
[30] = second compound 3.16 µM, first compound 10 µM
[31] = second compound 10 µM, first compound 0.0316 µM
[32] = second compound 10 µM, first compound 0.1 µM
[33] = second compound 10 µM, first compound 0.316 µM
[34] = second compound 10 µM, first compound 1 µM
[35] = second compound 10 µM, first compound 3.16 µM
[36] = second compound 10 µM, first compound 10 µM
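Also: spheroids exposed to compounds for one week before readout.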
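For viability, T/C in this document: percent viability relative to DMSO vehicle wells taken as 100%.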

O=C(Nc1ccc(O)c(NS(=O)(=O)c2ccc(F)cc2)c1)c1ccc(-c2ccccc2)cc1 + Cc1cccc(N(C)C(=O)C2C(O)CCN2c2nc(C)cc(C(F)(F)F)c2C#N)c1
IC50 (second compound 0.0316 µM): > 10000 nM | IC50 (second compound 0.1 µM): > 10000 nM | IC50 (second compound 0.316 µM): > 10000 nM | IC50 (second compound 1 µM): 6740 nM | IC50 (second compound 3.16 µM): 8180 nM | IC50 (second compound 10 µM): 7240 nM | viability, T/C [1]: 109% | viability, T/C [2]: 105% | viability, T/C [3]: 103% | viability, T/C [4]: 93.7% | viability, T/C [5]: 101% | viability, T/C [6]: 72.5% | viability, T/C [7]: 109% | viability, T/C [8]: 95.7% | viability, T/C [9]: 108% | viability, T/C [10]: 114% | viability, T/C [11]: 96.5% | viability, T/C [12]: 76.1% | viability, T/C [13]: 95.2% | viability, T/C [14]: 117% | viability, T/C [15]: 92.1% | viability, T/C [16]: 108% | viability, T/C [17]: 103% | viability, T/C [18]: 73% | viability, T/C [19]: 98.3% | viability, T/C [20]: 99.8% | viability, T/C [21]: 107% | viability, T/C [22]: 96.6% | viability, T/C [23]: 82% | viability, T/C [24]: 33.4% | viability, T/C [25]: 117% | viability, T/C [26]: 106% | viability, T/C [27]: 95.3% | viability, T/C [28]: 88.1% | viability, T/C [29]: 95.4% | viability, T/C [30]: 40.5% | viability, T/C [31]: 108% | viability, T/C [32]: 102% | viability, T/C [33]: 91.8% | viability, T/C [34]: 93.1% | viability, T/C [35]: 87.2% | viability, T/C [36]: 35.8%

COc1cccc2c1C(=O)c1c(O)c3c(c(O)c1C2=O)CC(O)(C(=O)CO)CC3OC1CC(N)C(O)C(C)O1 (centres undefined) + Nc1ccc(C#CCN(C(=O)Cc2ncc(C(F)(F)F)cc2C(F)(F)F)c2ccc(F)cc2)nn1
IC50 (second compound 0.0316 µM): 124 nM | IC50 (second compound 0.1 µM): < 31.6 nM | IC50 (second compound 0.316 µM): 89.2 nM | IC50 (second compound 1 µM): 79.2 nM | IC50 (second compound 3.16 µM): 58.4 nM | IC50 (second compound 10 µM): < 31.6 nM | viability, T/C [1]: 53.5% | viability, T/C [2]: 50.3% | viability, T/C [3]: 43.8% | viability, T/C [4]: 20.9% | viability, T/C [5]: 1.47% | viability, T/C [6]: 1.5% | viability, T/C [7]: 52% | viability, T/C [8]: 46.5% | viability, T/C [9]: 42.4% | viability, T/C [10]: 26.1% | viability, T/C [11]: 1.84% | viability, T/C [12]: 0.12% | viability, T/C [13]: 61.7% | viability, T/C [14]: 41.8% | viability, T/C [15]: 40.4% | viability, T/C [16]: 22.4% | viability, T/C [17]: 0.9% | viability, T/C [18]: 0.55% | viability, T/C [19]: 65.2% | viability, T/C [20]: 40.4% | viability, T/C [21]: 35.9% | viability, T/C [22]: 23.1% | viability, T/C [23]: 2.85% | viability, T/C [24]: 0.37% | viability, T/C [25]: 52.8% | viability, T/C [26]: 48% | viability, T/C [27]: 35.2% | viability, T/C [28]: 23.5% | viability, T/C [29]: 1.29% | viability, T/C [30]: 0.18% | viability, T/C [31]: 46.3% | viability, T/C [32]: 38.1% | viability, T/C [33]: 27.4% | viability, T/C [34]: 14.9% | viability, T/C [35]: 0.84% | viability, T/C [36]: 0.33%
